# In patent US20110144064A1, “Inhibitors of Kynurenine Aminotransferase and Uses Therefor” (priority 2005, published 2011):
# Several values for one entry are separate records, joined by “and”; a condition that tells them apart may be missing. Identical values can stand only once.
# Biological target: T1, rat liver partially purified KAT II (Rattus norvegicus, UniProt Q64602)
# T1 construct: rat liver partially purified KAT II; from tissue; host or cells: rat liver
# Assay: Inhibition of kynurenine aminotransferase II activity ([3H]-kynurenine to [3H]-kynurenic acid)
# Type: biochemical
# Conditions: IC50 kynurenine aminotransferase II
# Protocol: Compounds were tested as inhibitors of kynurenine aminotransferase II and the IC50 values determined. For the determination of the KAT II activity, 80 μl of rat liver partially purified KAT II was incubated (2 hrs at 37° C. with 100 μl of 150 mM Tris-acetate (pH 7.4), 2 μM kynurenine, (2.5 nCi) [^3H]-kynurenine 1 mM pyruvate and 70 μM pyridoxal-5′-phosphate. Add 20 μl of the inhibitor solution (10×). The reaction was terminated by the addition of 14 μl of 50% trichloroacetic acid and 1 ml of 0.1 N hydrochloric acid. The denaturated protein was removed by centrifugation and 1 ml of the supernatant was applied to a Dowex 50 W H^+ cation exchange column which was then washed with 1 ml of 0.1 N hydrochloric acid followed by 1 ml of ultrapure water. [^3H]-Kynurenic acid formed was subsequently eluted with 2×1 ml of ultrapure water and radioactivity was quantified by liquid scintillation spectrometry.
# All compounds are in the racemic form, when applicable, unless indicated otherwise. Other untested compounds are commercially available or easily synthesized using standard synthetic methods. Data are presented as IC50 values in μM for all tested compounds. Blanks are untested compounds.
# T1 sequence (Q64602 30-425): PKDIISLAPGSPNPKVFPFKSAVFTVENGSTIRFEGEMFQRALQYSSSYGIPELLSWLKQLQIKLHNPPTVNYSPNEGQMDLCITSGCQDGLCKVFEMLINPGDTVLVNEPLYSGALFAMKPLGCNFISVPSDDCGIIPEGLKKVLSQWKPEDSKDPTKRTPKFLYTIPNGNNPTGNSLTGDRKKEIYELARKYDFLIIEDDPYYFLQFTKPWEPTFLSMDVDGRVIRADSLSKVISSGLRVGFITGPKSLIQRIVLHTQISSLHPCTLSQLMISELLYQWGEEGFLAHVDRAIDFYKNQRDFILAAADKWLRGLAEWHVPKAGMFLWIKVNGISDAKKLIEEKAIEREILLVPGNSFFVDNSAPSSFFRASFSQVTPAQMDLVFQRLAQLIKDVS
row,SMILES,IC50 [µM]
1,"NC(CCCCCC(=O)O)C(=O)O (racemic) [n=5, R^1 = NH^2, DL-2-amino-1,8-octanedioic acid]",272

# Same assay, conditions: IC50 kynurenine aminotransferase II, rat liver partially purified KAT II, 2 hrs at 37° C., pH 7.4, 2 μM kynurenine, 1 mM pyruvate
row,SMILES,IC50 [µM]
1,"NC(CCC(=O)O)C(=O)O (racemic) [n=2, R^1 = NH^2, DL-2-amino-1,5-pentanedioic acid]",2250
2,"NC(CCCCCP(=O)(O)O)C(=O)O (stereo not drawn) [n=5, X = PO3H2 (DL), 2-amino-7-phosphonoheptanoic acid]",1460
3,"NC(CCP(=O)(O)O)C(=O)O (racemic) [n=2, X = PO3H2 (DL), DL-2-amino-4-phosphonobutyric acid]",505

# Same assay, conditions: rat liver partially purified KAT II, 2 hrs at 37° C., pH 7.4, 2 μM kynurenine, 1 mM pyruvate
row,SMILES,IC50 kynurenine aminotransferase II
1,"O=C(O)CCCC(=O)O [n=2, R^1 = H]",inactive
2,"O=C(O)CCC(=O)O [n=1, R^1 = H]",inactive
3,"O=C(O)CC(=O)O [n=0, R^1 = H]",inactive
4,"O=C(O)CCCCCCC(=O)O [n=5, R^1 = H]",inactive

# Same assay, conditions: rat liver partially purified KAT II, 2 hrs at 37° C., pH 7.4, 2 μM kynurenine, 1 mM pyruvate; read-out: IC50 kynurenine aminotransferase II
row,SMILES,IC50
1,"O=C(O)CCCCCC(=O)O [n=4, R^1 = H, 1,7-heptanedioic acid]",6370 µM
2,"NC(CCCC(=O)O)C(=O)O (racemic) [n=3, R^1 = NH^2, DL-2-amino-1,6-hexanedioic acid]",18 µM
3,"O=C(O)CCCCCCCCCCCCCCC(=O)O [n=13, R^1 = H, 1,16-hexadecanedioic acid]",60 µM
4,"O=C(O)CCCCC(=O)O [n=3, R^1 = H, 1,6-hexanedioic acid]",1290 µM
5,"O=C(O)CCCCCCCCCCCCC(=O)O [n=11, R^1 = H, 1,14-tetradecanedioic acid]",102 µM
6,"CNC(CCCCCCCCCCCCCC(=O)O)C(=O)O (racemic) [DL-2-methylamino-1,16-hexadecanedioic acid]",29.3 µM
7,"O=C(O)CCCCCCCCCCC(=O)O [n=9, R^1 = H, 1,12-dodecanedioic acid]",256 µM
8,"CC(N)(CCCCCCCCCCCCCC(=O)O)C(=O)O (racemic) [DL-2-amino-2-methyl-1,16-hexadecanedioic acid]",53.7 µM
9,"NC(CS(=O)(=O)O)C(=O)O (centres unmarked) [n=1, X = SO3H (L), 2-amino-3-sulfopropionic acid]",739 µM
10,"NC(CCS(=O)(=O)O)C(=O)O (centres unmarked) [n=2, X = SO3H (L), 2-amino-4-sulfobutyric acid]",63 µM
11,"NC(CCCP(=O)(O)O)C(=O)O (racemic) [n=3, X = PO3H2 (DL), DL-2-amino-5-phosphonopentanoic acid]",1000 µM
12,"N[C@@H](CS(=O)O)C(=O)O [n=1, X = S02H (L), cysteinesulfinic acid]",1150 µM
13,"O=C(O)CCCCCCCCCCCCCC(=O)O [n=12, R^1 = H, 1,15-pentadecanedioic acid]",71 µM
14,"NC(CCCCCCCCCCC(=O)O)C(=O)O (racemic) [n=10, R^1 = NH^2, DL-2-amino-1,13-tridecanedioic acid]",7 µM
15,"NC(CCCCCCCCCCCCCCC(=O)O)C(=O)O (racemic) [n=14, R^1 = NH^2, DL-2-amino-1,17-heptadecanedioic acid]",85 µM
16,"NC(CCCCCCCCCC(=O)O)C(=O)O (racemic) [n=9, R^1 = NH^2, DL-2-amino-1,12-dodecandioic acid]",8 µM
17,"O=C(O)CCCCCCCCCCCCCCCO [n = 13, R1, R2 = H, X = CH2OH, 16-hydroxyhexadecanoic acid]",149 µM
18,"O=C(O)CCCCCCCCCCCC(=O)O [n=10, R^1 = H, 1,13-tridecanedioic acid]",170 µM
19,"NC(CCCCC(=O)O)C(=O)O (racemic) [n=4, R^1 = NH^2, DL-2-amino-1,7-heptanedioic acid]",14 µM
20,"NC(CCCCCCCCCCCCCC(=O)O)C(=O)O (racemic) [n=13, R^1 = NH^2, DL-2-amino-1,16-hexadecanedioic acid]",6 µM and 6.4 µM
21,"O=C(O)CCCCCCCCCC(=O)O [n=8, R^1 = H, 1,11-undecanedioic acid]",234 µM
22,"O=C(O)CCCCCCCCC(=O)O [n=7, R^1 = H, 1,10-decanedioic acid]",720 µM
23,"NC(CCCCCCC(=O)O)C(=O)O (racemic) [n=6, R^1 = NH^2, DL-2-amino-1,9-nonanedioic acid]",355 µM
24,"O=C(O)CCCCCCCC(=O)O [n=6, R^1 = H, 1,9-nonanedioic acid]",4580 µM
25,"NC(CC(=O)O)C(=O)O (racemic) [n=1, R^1 = NH^2, DL-2-amino-1,4-butanedioic acid]",2460 µM
26,"NC(CCCCCCCCC(=O)O)C(=O)O (racemic) [n=8, R^1 = NH^2, DL-2-amino-1,11-undecanedioic acid]",7 µM
27,"N[C@@H](CCS(=O)O)C(=O)O [n=2, X = S02H (L), homocysteinesulfinic acid]",224 µM
